Experimental data reported in ChEMBL document CHEMBL1158051, “Russujaponols A-F, illudoid sesquiterpenes from the fruiting body of Russula japonica” (2006).

How the values were obtained:
HT-1080 [1] = experiment: Inhibition of invasion of human HT1080 cells into Matrigel at 0.17 uM; format: functional
HT-1080 [2] = experiment: Inhibition of invasion of human HT1080 cells into Matrigel at 3.73 uM; format: functional

Q: COc1cccc2c1C(=O)c1c(O)c3c(c(O)c1C2=O)C[C@@](O)(C(=O)CO)C[C@@H]3O[C@H]1C[C@H](N)[C@H](O)[C@H](C)O1 [DOXORUBICIN] was tested. Which inhibition at 0.17 µM (HT-1080 [1]) did it give?
A: The inhibition at 0.17 µM was 52%.

Q: Which inhibition at 3.73 µM (HT-1080 [2]) does the source give for C[C@H]1C(=O)[C@@H]2C[C@](C)(CO)C[C@]2(O)[C@@]2(C)CC[C@@]12O [RUSSUJAPONOL A] here?
A: The inhibition at 3.73 µM was 63%.
